Values of other authors as cited in patent US9950044B2, “Treatment of pulmonary vascular remodeling with neprilysin” (THE REGENTS OF THE UNIVERSITY OF COLORADO, A BODY CORPORATE, priority 2010, dated 2018).

Columns and labels:
[1] = tested on: VIP KO mice; conditions: IP injections every other day; cited from earlier work
[2] = tested on: human PA SMCs from IPAH patients; conditions: cells from IPAH patients; cited from earlier work
[3] = tested on: NEP; conditions: exogenous VIP; cited from earlier work
[4] = tested on: human IPAH patients; conditions: cited from earlier work
[5] = human IPAH patients, inhalation

VIP: 28 amino acid peptide with a molecular weight of 3.33 kD
PA medial thickening [1]: reduced
RV hypertrophy [1]: reduced
in vitro proliferation of human PA SMCs [2]: inhibited
effect on NEP enzymatic activity [3]: did not affect
PaO2 [4, 5]: significant improvement
exercise capacity [4, 5]: significant improvement
untoward effects reported by subjects ([4]; human, in vivo): no untoward effects
